The text below walks through data of US9856263B2, “Heteroaromatic compounds and their use as dopamine D1 ligands” (PFIZER INC., priority 2014, dated 2018).

For the test, the target named is Human D1 Receptor (Homo sapiens (Human), UniProt P21728). The test is described as follows: Human D1 receptor binding assay ([3H]-SCH23390 competition binding). To be noted: over-expressing LTK human cell lines, 0.5 nM [3H]-SCH23390, 30 min at 37° C., footnote a = single determination, b = geometric mean of ≧5 determinations. Here is the method:
D1 binding assays were performed using over-expressing LTK human cell lines. […] These ligand and tissue concentrations were used in time course studies to determine linearity and equilibrium conditions for binding. […] The pellet was resuspended in assay buffer [50 mM Tris (pH 7.4@ RT) containing 4 mM MgSO4 and 0.5 mM EDTA]. […] Non-specific binding was determined by radioligand binding in the presence of a saturating concentration of (+)-Butaclamol (10 μM), a D1 antagonist After a 30 minute incubation period at 37° C., assay samples were rapidly filtered through Unifilter-96 GF/B PEI-coated filter plates and rinsed with 50 mM Tris buffer (pH 7.4 at 4° C.). […] Ki values were calculated according to the Cheng-Prusoff equation: […]

[1] abbreviates: read-out: Human D1 Receptor Binding, Ki (nM), Geometric mean of 2-4 determinations (unless otherwise indicated).

Like-named read-outs stand apart in the source and are kept apart here.

Human D1 Receptor, sequence (P21728 whole entry): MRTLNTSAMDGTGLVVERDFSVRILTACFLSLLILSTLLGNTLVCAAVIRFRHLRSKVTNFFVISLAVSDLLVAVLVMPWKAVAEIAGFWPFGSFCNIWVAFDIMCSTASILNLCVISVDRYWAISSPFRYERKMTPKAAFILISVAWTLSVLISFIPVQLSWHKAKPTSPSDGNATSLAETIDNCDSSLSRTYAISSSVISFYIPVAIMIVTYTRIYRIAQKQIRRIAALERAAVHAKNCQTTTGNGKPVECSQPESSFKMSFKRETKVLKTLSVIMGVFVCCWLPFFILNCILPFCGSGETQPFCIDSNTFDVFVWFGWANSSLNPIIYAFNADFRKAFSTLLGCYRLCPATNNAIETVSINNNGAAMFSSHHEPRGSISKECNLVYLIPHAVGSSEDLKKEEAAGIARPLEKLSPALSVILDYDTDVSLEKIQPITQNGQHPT

For the compound `Cc1cc(Oc2ccnc3ccnn23)ccc1-c1c(C)ncnc1C` [Example 40, 7-[4-(4,6-dimethylpyrimidin-5-yl)-3-methylphenoxy]pyrazolo[1,5-a]pyrimidine], the Ki under setting [1] was > 6400 nM.

In turn, `Cc1ncnc(C)c1-c1ccc(Oc2nccn3cccc23)cc1C#N` [Example 10, 2-(4,6-dimethylpyrimidin-5-yl)-5-(pyrrolo[1,2-a]pyrazin-1-yloxy)benzonitrile] came in with a Ki of 63.9 nM.

As for `COc1cc(Oc2nccn3cccc23)ccc1-c1c(C)cnnc1C` [Example 27, 1-[4-(3,5-dimethylpyridazin-4-yl)-3-methoxyphenoxy]pyrrolo[1,2-a]pyrazine], the Ki under setting [1] was determined as 28.1 nM.

For `Cc1cc(Oc2ncnn3cccc23)ccc1-c1c(C)ncc(=O)n1C` [Example 39, 1,5-dimethyl-6-[2-methyl-4-(pyrrolo[2,1-f][1,2,4]triazin-4-yloxy)phenyl]pyrazin-2(1H)-one], the Ki under setting [1] came to 31.2 nM.

As to `Cc1ncnc(C)c1-c1cc(F)c(Oc2ncnn3cccc23)cc1F` [Example 29, 4-[4-(4,6-dimethylpyrimidin-5-yl)-2,5-difluorophenoxy]pyrrolo[2,1-f][1,2,4]triazine], the Ki under setting [1] amounted to 85.7 nM.

Take `Cc1cc(Oc2nccn3nccc23)ccc1-c1c(C)ncnc1C` [Example 6, 4-[4-(4,6-dimethylpyrimidin-5-yl)-3-methylphenoxy]pyrazolo[1,5-a]pyrazine]: the inhibition constant Ki under setting [1] is 61.3 nM.

On to `Cc1cc(Oc2ncnn3cccc23)ccc1-c1c(C)cnnc1C` [Example 9, 4-[4-(3,5-dimethylpyridazin-4-yl)-3-methylphenoxy]pyrrolo[2,1-f][1,2,4]triazine], for which the Ki under setting [1] turned out to be 35.8 nM.

For `Cc1cc(Oc2nccn3cccc23)ccc1-c1c(C)ncnc1C` [Example 4, 1-[4-(4,6-dimethylpyrimidin-5-yl)-3-methylphenoxy]pyrrolo[1,2-a]pyrazine], the Ki under setting [1] worked out at 22.1 nM.

Turning to `Cc1ncnc(C)c1-c1ccc(Oc2nccn3nccc23)cc1C#N` [Example 11, 2-(4,6-dimethylpyrimidin-5-yl)-5-(pyrazolo[1,5-a]pyrazin-4-yloxy)benzonitrile], under setting [1], the Ki was found to be 1820 nM.

In the case of `Cc1ncnc(C)c1-c1ccc(Oc2ncnn3cccc23)cc1C#N` [Example 38, 2-(4,6-dimethylpyrimidin-5-yl)-5-(pyrrolo[2,1-f][1,2,4]triazin-4-yloxy)benzonitrile], under setting [1], the Ki is 141 nM.

`COc1cc(Oc2nccn3cccc23)ccc1-c1cccnc1C` [Example 25, 1-[3-methoxy-4-(2-methylpyridin-3-yl)phenoxy]pyrrolo[1,2-a]pyrazine]: the Ki under setting [1] was 56.4 nM.

In the case of `Cc1cc(Oc2ncnn3cccc23)ccc1-c1c(C)nc2ncccn12` [Example 18, 4-[3-methyl-4-(2-methylimidazo[1,2-a]pyrimidin-3-yl)phenoxy]pyrrolo[2,1-f][1,2,4]triazine], under setting [1], the Ki worked out at 1150 nM.

For `Cc1ncnc(C#N)c1-c1ccc(Oc2nccn3cccc23)cc1F` [Example 30, 5-[2-fluoro-4-(pyrrolo[1,2-a]pyrazin-1-yloxy)phenyl]-6-methylpyrimidine-4-carbonitrile], under setting [1], the Ki amounted to 59 nM.

On to `Cc1ncnc(C)c1-c1ccc(Oc2ncnn3cccc23)c(F)c1C` [Example 32, 4-[4-(4,6-dimethylpyrimidin-5-yl)-2-fluoro-3-methylphenoxy]pyrrolo[2,1-f][1,2,4]triazine], for which the Ki under setting [1] came out at 116 nM.

`Cc1cc(Oc2nccn3cccc23)c(F)cc1-c1c(C)ncnc1C` [Example 35, 1-[4-(4,6-dimethylpyrimidin-5-yl)-2-fluoro-5-methylphenoxy]pyrrolo[1,2-a]pyrazine]: under setting [1], the Ki is 31.5 nM.

As for `Cc1ncnc(C)c1-c1ccc(Oc2nccn3cccc23)c(F)c1` [Example 34, 1-[4-(4,6-dimethylpryimidin-5-yl)-2-fluorophenoxy]pyrrolo[1,2-a]pyrazine], the Ki under setting [1] was determined as 49.4 nM.

Consider `COc1cc(Oc2ncnn3cccc23)ccc1-c1cccnc1C` [Example 24, 4-[3-methoxy-4-(2-methylpyridin-3-yl)phenoxy]pyrrolo[2,1-f][1,2,4]triazine], for which, under setting [1], the Ki is 83.9 nM.

As to `Cc1ncnc(C)c1-c1ccc(Oc2ncnn3cccc23)cc1F` [Example 16, 4-[4-(4,6-dimethylpyrimidin-5-yl)-3-fluorophenoxy]pyrrolo[2,1-f][1,2,4]triazine], the Ki under setting [1] came out at 58.2 nM.

For the compound `Cc1ncnc(C)c1-c1ccc(Oc2nccn3cccc23)cc1F` [Example 20, 1-[4-(4,6-dimethylpyrimidin-5-yl)-3-fluorophenoxy]pyrrolo[1,2-a]pyrazine], the Ki under setting [1] is 59.3 nM.

Regarding `COc1cc(Oc2nccn3nccc23)ccc1-c1c(C)ncnc1C` [Example 23, 4-[4-(4,6-dimethylpyrimidin-5-yl)-3-methoxyphenoxy]pyrazolo[1,5-a]pyrazine], the Ki under setting [1] amounted to 894 nM.

For `Cc1cc(Oc2nccn3cccc23)ccc1-c1c(C)cnnc1C` (single isomer, unassigned) [Example 13, (+)-1-[4-(3,5-dimethylpyridazin-4-yl)-3-methylphenoxy]pyrrolo[1,2-a]pyrazine], the Ki under setting [1] came to 13.1 nM.

As to `Cc1cnnc(C)c1-c1ccc(Oc2ncnn3cccc23)cc1F` [Example 22, 4-[4-(3,5-dimethylpyridazin-4-yl)-3-fluorophenoxy]pyrrolo[2,1-f][1,2,4]triazine], the Ki under setting [1] was determined as 105 nM.

For `Cc1cc(Oc2nccn3cccc23)ccc1-c1c(C)nnc2nccn12` [Example 28, 3-methyl-4-[2-methyl-4-(pyrrolo[1,2-a]pyrazin-1-yloxy)phenyl]imidazo[2,1-c][1,2,4]triazine], under setting [1], the Ki is 198 nM.

Turning to `Cc1ncnc(C)c1-c1ccc(Oc2ncnn3cccc23)c(F)c1` [Example 33, 4-[4-(4,6-dimethylpyrimidin-5-yl)-2-fluorophenoxy]pyrrolo[2,1-f][1,2,4]triazine], the inhibition constant (Ki) under setting [1] was 252 nM.

As for `Cc1c(-c2ccc(Oc3nccn4cccc34)cc2)n(C)c(=O)[nH]c1=O` [Example 15, 1,5-dimethyl-6-[4-(pyrrolo[1,2-a]pyrazin-1-yloxy)phenyl]pyrimidine-2,4(1H,3H)-dione], under setting [1], the Ki was 7.3 nM.

Consider `Cc1ncnc(C)c1-c1ccc(Oc2nccn3nccc23)cc1` [Example 7, 4-[4-(4,6-dimethylpyrimidin-5-yl)phenoxy]pyrazolo[1,5-a]pyrazine], for which, under setting [1], the Ki is 514 nM.

`COc1cc(Oc2ncnn3cccc23)ccc1-c1c(C)ncnc1C` [Example 19, 4-[4-(4,6-dimethylpyrimidin-5-yl)-3-methoxyphenoxy]pyrrolo[2,1-f][1,2,4]triazine]: the Ki under setting [1] came out at 672 nM.

`Cc1cc(Oc2nccn3cccc23)ccc1-c1c(C)cnnc1C` (single isomer, unassigned) [Example 12, (−)-1-[4-(3,5-dimethylpyridazin-4-yl)-3-methylphenoxy]pyrrolo[1,2-a]pyrazine]: the Ki under setting [1] amounted to 96.3 nM.

In the case of `Cc1cc(Oc2ncnn3cccc23)ccc1-c1c(C)ncnc1C` [Example 5, 4-[4-(4,6-dimethylpyrimidin-5-yl)-3-methylphenoxy]pyrrolo[2,1-f][1,2,4]triazine], under setting [1], the Ki was found to be 56.4 nM.

Turning to `COc1cc(Oc2nccn3cccc23)ccc1-c1c(C)ncnc1C` [Example 41, 1-[4-(4,6-dimethylpyrimidin-5-yl)-3-methoxyphenoxy]pyrrolo[1,2-a]pyrazine], under setting [1], the Ki came out at 34.7 nM.

With `Cc1ncnc(C)c1-c1ccc(Oc2nccn3nccc23)cc1F` [Example 17, 4-[4-(4,6-dimethylpyrimidin-5-yl)-3-fluorophenoxy]pyrazolo[1,5-a]pyrazine], the Ki under setting [1] is 183 nM.

Turning to `Cc1ncnc(C)c1-c1ccc(Oc2nccn3cccc23)cc1` [Example 21, 1-[4-(4,6-dimethylpyrimidin-5-yl)phenoxy]pyrrolo[1,2-a]pyrazine], under setting [1], the Ki amounted to 102 nM.

For the compound `Cc1ncnc(C)c1-c1ccc(Oc2nccn3cccc23)cc1Cl` [Example 37, 1-[3-chloro-4-(4,6-dimethylpyrimidin-5-yl)phenoxy]pyrrolo[1,2-a]pyrazine], the Ki under setting [1] was determined as 12.7 nM.

Regarding `Cc1ncnc(C)c1-c1ccc(Oc2nccn3cccc23)c(F)c1C` [Example 31, 1-[4-(4,6-dimethylpyrimidin-5-yl)-2-fluoro-3-methylphenoxy]pyrrolo[1,2-a]pyrazine], under setting [1], the Ki was determined as 179 nM.

For `Cc1n[nH]c(=O)c(C)c1-c1ccc(Oc2nccn3cccc23)cc1` [Example 14, 4,6-dimethyl-5-[4-(pyrrolo[1,2-a]pyrazin-1-yloxy)phenyl]pyridazin-3(2H)-one], the Ki under setting [1] stood at 18.8 nM.

`Cc1ncnc(C)c1-c1cc(F)c(Oc2nccn3cccc23)cc1F` [Example 26, 1-[4-(4,6-dimethyipyrimidin-5-yl)-2,5-difluorophenoxy]pyrrolo[1,2-a]pyrazine]: under setting [1], the Ki came to 86.1 nM.

Turning to `Cc1cc(Oc2nccn3nccc23)ccc1-c1c(C)ncc2nccn12` [Example 8, 6-methyl-5-[2-methyl-4-(pyrazolo[1,5-a]pyrazin-4-yloxy)phenyl](8-^2H)imidazo[1,2-a]pyrazine], the Ki under setting [1] amounted to 107 nM.

With `Cc1ncnc(C)c1-c1ccc(Oc2ncnn3cccc23)cc1Cl` [Example 36, 4-[3-chloro-4-(4,6-dimethylpyrimidin-5-yl)phenoxy]pyrrolo[2,1-f][1,2,4]triazine], the Ki under setting [1] was determined as 48.7 nM.
